In the CheMixHub viscosity set:
Values joined by “and” are separate entries in the source; they are usually repeats but may differ in a detail not shown here. Equal values may be shown once.

Assay: xn = mol fraction of the nth substance listed

CCCCCOC(C)=O + Cc1ccc(O)cc1
Settings	viscosity [mPa·s]
298.15 K, 101 kPa, x2 = 0.5	1.169

Cc1ccccc1O + Cc1ccc(O)cc1
viscosity [mPa·s]
Settings	298.15 K	313.15 K	323.15 K
101 kPa, x1 = 0.1547	13.27	–	–
101 kPa, x1 = 0.2999	12	–	–
101 kPa, x1 = 0.3525	11.63	–	–
101 kPa, x1 = 0.4233	11.03	–	–
101 kPa, x1 = 0.5256	10.3	–	–
101 kPa, x1 = 0.6304	9.612	–	–
101 kPa, x1 = 0.7573	8.854	–	–
101 kPa, x1 = 0.875	8.209	–	–
101.3 kPa, x1 = 0.1	–	6.38	4.318
101.3 kPa, x1 = 0.2	–	6.086	4.147
101.3 kPa, x1 = 0.3	–	5.766	3.929
101.3 kPa, x1 = 0.4	–	5.425	3.727
101.3 kPa, x1 = 0.5	–	5.125	3.555
101.3 kPa, x1 = 0.6	–	4.847	3.401
101.3 kPa, x1 = 0.7	–	4.616	3.235
101.3 kPa, x1 = 0.8	–	4.435	3.112
101.3 kPa, x1 = 0.9	–	4.3	3.047

CCCCCOC(C)=O + Cc1cccc(O)c1
Settings	viscosity [mPa·s]
298.15 K, 101 kPa, x2 = 0.5	1.167

Cc1ccccc1O + Cc1cccc(O)c1
viscosity [mPa·s]
Settings	298.15 K	313.15 K	323.15 K
101 kPa, x1 = 0.1537	12.16	–	–
101 kPa, x1 = 0.3061	11.09	–	–
101 kPa, x1 = 0.3536	10.75	–	–
101 kPa, x1 = 0.3954	10.5	–	–
101 kPa, x1 = 0.506	9.939	–	–
101 kPa, x1 = 0.6371	9.208	–	–
101 kPa, x1 = 0.7608	8.582	–	–
101 kPa, x1 = 0.8803	8.086	–	–
101.3 kPa, x2 = 0.1	–	4.379	3.086
101.3 kPa, x2 = 0.2	–	4.539	3.145
101.3 kPa, x2 = 0.3	–	4.689	3.235
101.3 kPa, x2 = 0.4	–	4.861	3.32
101.3 kPa, x2 = 0.5	–	5.048	3.417
101.3 kPa, x2 = 0.6	–	5.248	3.543
101.3 kPa, x2 = 0.7	–	5.462	3.666
101.3 kPa, x2 = 0.8	–	5.693	3.805
101.3 kPa, x2 = 0.9	–	5.966	3.949

CC(C)(C)c1ccccc1 + Cc1ccccc1
303.15 K, 101.3 kPa
Settings	viscosity [mPa·s]
x2 = 0.0457	0.974
x2 = 0.0865	0.949
x2 = 0.2449	0.8605
x2 = 0.3937	0.7829
x2 = 0.4453	0.7568
x2 = 0.5167	0.7206
x2 = 0.6672	0.6507
x2 = 0.7678	0.6057
x2 = 0.8687	0.5626
x2 = 0.957	0.5317
x2 = 0.9788	0.5253

CCCCCC + Cc1ccccc1
Settings	viscosity
298.15 K, 101 kPa, x1 = 0.1	0.5021 mPa·s
298.15 K, 101 kPa, x1 = 0.121	0.504 mPa·s
298.15 K, 101 kPa, x1 = 0.2	0.4602 mPa·s
298.15 K, 101 kPa, x1 = 0.211	0.471 mPa·s
298.15 K, 101 kPa, x1 = 0.299	0.443 mPa·s
298.15 K, 101 kPa, x1 = 0.3	0.4254 mPa·s
298.15 K, 101 kPa, x1 = 0.4	0.3964 mPa·s
298.15 K, 101 kPa, x1 = 0.5	0.372 mPa·s
298.15 K, 101 kPa, x1 = 0.6	0.3513 mPa·s and 0.37 mPa·s
298.15 K, 101 kPa, x1 = 0.7	0.3336 mPa·s
298.15 K, 101 kPa, x1 = 0.712	0.349 mPa·s
298.15 K, 101 kPa, x1 = 0.799	0.335 mPa·s
298.15 K, 101 kPa, x1 = 0.8	0.3186 mPa·s
298.15 K, 101 kPa, x1 = 0.9	0.3059 mPa·s
298.15 K, 101 kPa, x2 = 0.1483	0.321 mPa·s
298.15 K, 101 kPa, x2 = 0.1826	0.333 mPa·s
298.15 K, 101 kPa, x2 = 0.2169	0.34 mPa·s
298.15 K, 101 kPa, x2 = 0.2524	0.348 mPa·s
298.15 K, 101 kPa, x2 = 0.2897	0.36 mPa·s
298.15 K, 101 kPa, x2 = 0.3286	0.366 mPa·s
298.15 K, 101 kPa, x2 = 0.3707	0.377 mPa·s
298.15 K, 101 kPa, x2 = 0.4105	0.3865 mPa·s
298.15 K, 101 kPa, x2 = 0.4556	0.3985 mPa·s
298.15 K, 101 kPa, x2 = 0.5039	0.4115 mPa·s
298.15 K, 101 kPa, x2 = 0.552	0.426 mPa·s
298.15 K, 101 kPa, x2 = 0.6002	0.44 mPa·s
298.15 K, 101 kPa, x2 = 0.6539	0.457 mPa·s
298.15 K, 101 kPa, x2 = 0.6976	0.471 mPa·s
298.15 K, 101 kPa, x2 = 0.7444	0.486 mPa·s
298.23 K, 100 kPa, x1 = 0.5	0.3708 mPa·s
298.28 K, 100 kPa, x1 = 0.25	0.4404 mPa·s
298.3 K, 100 kPa, x1 = 0.75	0.3227 mPa·s
303.15 K, 101.33 kPa, x1 = 0.0826	0.4983 mPa·s
303.15 K, 101.33 kPa, x1 = 0.1685	0.4637 mPa·s
303.15 K, 101.33 kPa, x1 = 0.2578	0.4362 mPa·s
303.15 K, 101.33 kPa, x1 = 0.3509	0.4117 mPa·s
303.15 K, 101.33 kPa, x1 = 0.4477	0.3884 mPa·s
303.15 K, 101.33 kPa, x1 = 0.5487	0.3671 mPa·s
303.15 K, 101.33 kPa, x1 = 0.6541	0.3492 mPa·s
303.15 K, 101.33 kPa, x1 = 0.7643	0.3299 mPa·s
303.15 K, 101.33 kPa, x1 = 0.8795	0.3136 mPa·s
308.15 K, 101 kPa, x1 = 0.121	0.448 mPa·s
308.15 K, 101 kPa, x1 = 0.211	0.42 mPa·s
308.15 K, 101 kPa, x1 = 0.299	0.395 mPa·s
308.15 K, 101 kPa, x1 = 0.448	0.361 mPa·s
308.15 K, 101 kPa, x1 = 0.6	0.332 mPa·s
308.15 K, 101 kPa, x1 = 0.712	0.314 mPa·s
308.15 K, 101 kPa, x1 = 0.799	0.302 mPa·s
313.15 K, 101.33 kPa, x1 = 0.0826	0.4542 mPa·s
313.15 K, 101.33 kPa, x1 = 0.1685	0.4265 mPa·s
313.15 K, 101.33 kPa, x1 = 0.2578	0.4033 mPa·s
313.15 K, 101.33 kPa, x1 = 0.3509	0.3782 mPa·s
313.15 K, 101.33 kPa, x1 = 0.4477	0.3592 mPa·s
313.15 K, 101.33 kPa, x1 = 0.5487	0.3375 mPa·s
313.15 K, 101.33 kPa, x1 = 0.6541	0.3202 mPa·s
313.15 K, 101.33 kPa, x1 = 0.7643	0.3043 mPa·s
313.15 K, 101.33 kPa, x1 = 0.8795	0.2896 mPa·s
323.15 K, 101 kPa, x1 = 0.121	0.382 mPa·s
323.15 K, 101 kPa, x1 = 0.211	0.36 mPa·s
323.15 K, 101 kPa, x1 = 0.299	0.341 mPa·s
323.15 K, 101 kPa, x1 = 0.448	0.314 mPa·s
323.15 K, 101 kPa, x1 = 0.6	0.292 mPa·s
323.15 K, 101 kPa, x1 = 0.712	0.278 mPa·s
323.15 K, 101 kPa, x1 = 0.799	0.255 mPa·s
323.15 K, 101.33 kPa, x1 = 0.0826	0.4006 mPa·s
323.15 K, 101.33 kPa, x1 = 0.1685	0.3747 mPa·s
323.15 K, 101.33 kPa, x1 = 0.2578	0.3545 mPa·s
323.15 K, 101.33 kPa, x1 = 0.3509	0.3354 mPa·s
323.15 K, 101.33 kPa, x1 = 0.4477	0.3184 mPa·s
323.15 K, 101.33 kPa, x1 = 0.5487	0.3022 mPa·s
323.15 K, 101.33 kPa, x1 = 0.6541	0.2867 mPa·s
323.15 K, 101.33 kPa, x1 = 0.7643	0.2736 mPa·s
323.15 K, 101.33 kPa, x1 = 0.8795	0.262 mPa·s

Cc1ccccc1O + Cc1ccccc1
308.15 K, 101 kPa
Settings	viscosity [mPa·s]
x1 = 0.1491	0.6
x1 = 0.224	0.7051
x1 = 0.307	0.8217
x1 = 0.397	0.9904
x1 = 0.5325	1.332
x1 = 0.6095	1.604
x1 = 0.6968	2.034
x1 = 0.7755	2.544
x1 = 0.87	3.369

CCCCCOC(C)=O + Cc1ccccc1O
Settings	viscosity [mPa·s]
298.15 K, 101 kPa, x2 = 0.5	1.165

CC1CCC(C)O1 (stereo unspecified) + ClC1CCCCC1
viscosity [mPa·s], 101.3 kPa
Settings	x1 = 0.0973	x1 = 0.2014	x1 = 0.3026	x1 = 0.3986	x1 = 0.4986	x1 = 0.6031	x1 = 0.7002	x1 = 0.7977	x1 = 0.8986
298.15 K	1.36	1.179	1.033	0.9191	0.818	0.7279	0.6563	0.5937	0.5366
313.15 K	1.073	0.9412	0.8337	0.7486	0.6724	0.6054	0.551	0.499	0.452

CCCCCOC(C)=O + ClC(Cl)(Cl)Cl
303.15 K, 101.3 kPa
Settings	viscosity [mPa·s]
x1 = 0.0945	0.8029
x1 = 0.1925	0.7788
x1 = 0.3042	0.7586
x1 = 0.4017	0.7482
x1 = 0.5021	0.7413
x1 = 0.6003	0.7378
x1 = 0.7016	0.7385
x1 = 0.808	0.7427
x1 = 0.9075	0.746

CCCCCOC(C)=O + ClC(Cl)C(Cl)Cl
303.15 K, 101.3 kPa
Settings	viscosity [mPa·s]
x1 = 0.1051	1.473
x1 = 0.2031	1.446
x1 = 0.3044	1.401
x1 = 0.4008	1.34
x1 = 0.5038	1.256
x1 = 0.598	1.165
x1 = 0.7002	1.061
x1 = 0.7935	0.9582
x1 = 0.8927	0.8565

CCOC(=O)CC + ClC(Cl)C(Cl)Cl
viscosity [mPa·s], 101.3 kPa
Settings	308.15 K	318.15 K
x1 = 0.0486	1.333	1.203
x1 = 0.0999	1.261	1.128
x1 = 0.2025	1.127	0.996
x1 = 0.2997	1.013	0.888
x1 = 0.3983	0.922	0.794
x1 = 0.5003	0.817	0.71
x1 = 0.5986	0.714	0.64
x1 = 0.7023	0.617	0.576
x1 = 0.801	0.583	0.523
x1 = 0.9018	0.521	0.476
x1 = 0.951	0.493	0.455
